Source: patent US20160045505A1, “COMPOUNDS AND COMPOSITIONS FOR THE TREATMENT OF PARASITIC DISEASES” (NOVARTIS AG, priority 2013, published 2016)
pEC50: −log10 of the molar value. Where two headings read alike, the source gives them in different places.

Key:
[1] = test system: L. donovani HU3 strain in mouse peritoneal macrophages; experiment: Assay for proliferation of Leishmania parasites in infected mouse peritoneal macrophages (SybrGreen staining, high-content imaging, 5 days); type: cell-based, Leishmania donovani; conditions: Leishmania donovani, Peritoneal macrophage, L. donovani in mouse peritoneal macrophages, inhibition of proliferation; read-out: L. donovani Macrophage EC50
[2] = test system: Leishmania donovani axenic amastigote parasites; experiment: Leishmania donovani axenic amastigote proliferation assay (Cell TiterGlo luminescence, 2 day incubation); type: cell-based; conditions: Leishmania donovani, axenic amastigotes, inhibition of proliferation; read-out: L. donovani amastigotes EC50
[3] = test system: Trypanosoma cruzi amastigotes (Tulahuen strain expressing Lac-Z) cultured in 3T3 fibroblast cells; experiment: microbe, parasite or virus in culture; type: cell-based; conditions: Trypanosoma cruzi, TULAHUEN, Fibroblast, T. cruzi amastigotes in 3T3 fibroblast cells, inhibition of proliferation; read-out: T cruzi EC50
[4] = test system: Trypanosoma brucei Lister 427 strain, bloodstream form; experiment: Assay for proliferation of kinetoplastid parasite Trypanosoma brucei (Cell Titer Glo, 48 hours); type: cell-based; conditions: Trypanosoma brucei, read-out: T. brucei EC50
Procedure, shortened: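 Bloodstream-form T. brucei Lister 427 in HMI-9 medium was exposed to compound (DMSO vehicle) for 48 hours at 37° C, 5% CO2. Parasite growth was read as ATP by CellTiter-Glo luminescence, with EC50 calculated from percent inhibition.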

[5] = T. brucei Lister 427 bloodstream form, inhibition of proliferation

Compound	pEC50 [1]	pEC50 [2]	pEC50 [3]	pEC50 [4, 5]	pEC50 [4]
O=C(Nc1ccc(F)c(-c2cn3cc(F)cnc3n2)c1)N1CCC1 [Compound 232]	5.78	6.42	6.42	6.69	
O=C(Nc1ccc(F)c(-c2cn3cc(F)cnc3n2)c1)N1CC(F)(F)C1 [Compound 233]	5.69	6.54	6.12	6.49	
O=C(Nc1ccc(F)c(-c2cn3cc(F)cnc3n2)c1)N1CC[C@@H](F)C1 [Compound 234]	6.13	6.66	6.81	6.82	
O=C(Nc1ccc(F)c(-c2cn3cc(Cl)cnc3n2)c1)N1CC(F)(F)C1 [Compound 235]	6.09	6.67	6.36	6.78	
O=C(Nc1ccc(F)c(-c2cn3cc(Cl)cnc3n2)c1)N1CC[C@@H](F)C1 [Compound 236]	6.36	7.02	7.01	7.44	
O=C(Nc1ccc(F)c(-c2cn3cc(Cl)cnc3n2)c1)N1CCC1 [Compound 237]	6.06	6.66	6.64	6.91	
O=C(Nc1ccc(F)c(-c2cn3cc(Cl)cnc3n2)c1)N1CC(F)C1 [Compound 238]	6.10	6.68	6.63	6.93	
CN(C)C(=O)Nc1ccc(F)c(-c2cn3cc(C(F)F)cnc3n2)c1 [Compound 239]	5.66	6.29	6.43	6.46	
CC(C)OC(=O)Nc1cnc2nc(-c3cc(NC(=O)C4CC4)ccc3F)cn2c1 [Compound 240]	< 4.30	5.93	6.22	6.36	
CC(C)OC(=O)Nc1cnc2nc(-c3cc(NC(=O)c4nccs4)ccc3F)cn2c1 [Compound 242]	5.66	6.16	6.70	6.32	
CC(C)OC(=O)Nc1cnc2nc(-c3cc(NC(=O)c4nccs4)ccc3Cl)cn2c1 [Compound 243]	5.58	6.11	6.82	6.43	
CC(C)OC(=O)Nc1cnc2nc(-c3cc(NC(=O)c4ccco4)ccc3Cl)cn2c1 [Compound 244]	6.46	6.82	7.26	7.19	
CC(C)OC(=O)Nc1cnc2nc(-c3cc(NC(=O)C4CC4)ccc3Cl)cn2c1 [Compound 245]	5.69	5.77	5.95	5.85	
CC(C)OC(=O)Nc1cnc2nc(-c3cc(NC(=O)N(C)C)ccc3Cl)cn2c1 [Compound 246]	5.92	6.25	6.21	7.07	
CCC(=O)Nc1ccc(Cl)c(-c2cn3cc(NC(=O)OC(C)C)cnc3n2)c1 [Compound 247]	5.49	6.13	6.24	6.44	
Cc1nc(C)c(C(=O)Nc2ccc(F)c(-c3cn4cc(NC(=O)C5CC5)cnc4n3)c2)o1 [Compound 248]	6.39	6.72	< 4.70	6.77	
CC(C)CN(C)C(=O)Nc1ccc(Cl)c(-c2cn3cc(NC(=O)OC(C)C)cnc3n2)c1 [Compound 249]	5.26	5.47	5.87		5.39
CCN(C)C(=O)Nc1ccc(Cl)c(-c2cn3cc(NC(=O)OC(C)C)cnc3n2)c1 [Compound 250]	6.08	6.30	6.20	6.95	
Cc1nc(C)c(C(=O)Nc2ccc(F)c(-c3cn4cc(-c5cnccn5)cnc4n3)c2)o1 [Compound 251]	7.07	7.46	7.21	7.35	
CC(C)OC(=O)Nc1cnc2nc(-c3cc(NC(N)=O)ccc3Cl)cn2c1 [Compound 252]	< 4.30	< 4.60	< 4.70	4.48	
CC(C)OC(=O)Nc1cnc2nc(-c3cc(NC(=O)N(C)CC(F)(F)F)ccc3Cl)cn2c1 [Compound 255]	6.30	6.44	6.48	6.91	
CC(C)OC(=O)Nc1cnc2nc(-c3cc(NC(=O)N(C)c4nccn4C)ccc3Cl)cn2c1 [Compound 256]	< 4.30	< 4.60	< 4.70	4.50	
CC(C)OC(=O)Nc1cnc2nc(-c3cc(NC(=O)NN)ccc3Cl)cn2c1 [Compound 257]	< 4.47	5.04	5.39	5.33	

Compound	pEC50 [1]	pEC50 [2]	pEC50 [3]	pEC50 [4, 5]	pEC50 [4]
CC(C)OC(=O)Nc1cnc2nc(-c3cc(NC(=O)N4C[C@@H]5C[C@H]4CO5)ccc3Cl)cn2c1 [Compound 258]	< 4.37	4.70	< 4.70	4.88	
CC(C)OC(=O)Nc1cnc2nc(-c3cc(NC(=O)N4CCCC4c4ccccn4)ccc3Cl)cn2c1 (stereo not drawn) [Compound 259]	4.62	< 4.65	4.96	4.46	
CC(C)OC(=O)Nc1cnc2nc(-c3cc(NC(=O)N4CCC[C@@H]4C(F)(F)F)ccc3Cl)cn2c1 [Compound 260]	5.42	< 4.60	5.34	< 4.30	
CC(C)OC(=O)Nc1cnc2nc(-c3cc(NC(=O)N4CCC5(C4)CC5(F)F)ccc3Cl)cn2c1 (stereo not drawn) [Compound 261]	5.15	5.36	5.72	5.91	
CC(C)CNC(=O)Nc1ccc(Cl)c(-c2cn3cc(NC(=O)OC(C)C)cnc3n2)c1 [Compound 263]	5.45	5.76	5.88	5.96	
CC(C)OC(=O)Nc1cnc2nc(-c3cc(NC(=O)N4CC[C@H](F)C4)ccc3Cl)cn2c1 [Compound 264]	< 4.85	5.32	5.33	5.37	
CO[C@@H]1CCN(C(=O)Nc2ccc(Cl)c(-c3cn4cc(NC(=O)OC(C)C)cnc4n3)c2)C1 [Compound 265]	5.37	6.01	5.41	5.81	
CC(C)OC(=O)Nc1cnc2nc(-c3cc(NC(=O)N4CC(F)(F)C(F)(F)C4)ccc3Cl)cn2c1 [Compound 266]	5.47	5.90	5.93	5.84	
CC(C)OC(=O)Nc1cnc2nc(-c3cc(NC(=O)N4CC[C@@H](F)C4)ccc3Cl)cn2c1 [Compound 267]	5.74	6.31	5.72	6.94	
CC(C)OC(=O)Nc1cnc2nc(-c3cc(NC(=O)NC4CCC4)ccc3Cl)cn2c1 [Compound 269]	4.82	5.02	5.38	5.45	
CC(C)OC(=O)Nc1cnc2nc(-c3cc(NC(=O)N4C(C)CCC4C)ccc3Cl)cn2c1 (stereo not drawn) [Compound 270]	5.66	5.54	6.15	5.39	
CC(C)OC(=O)Nc1cnc2nc(-c3cc(NC(=O)N4CCC(N(C)C)C4)ccc3Cl)cn2c1 (stereo not drawn) [Compound 275]	4.77	< 4.60	4.93	4.46	
CC(=O)N(C)C1CCN(C(=O)Nc2ccc(Cl)c(-c3cn4cc(NC(=O)OC(C)C)cnc4n3)c2)C1 (stereo not drawn) [Compound 276]	< 4.30	< 4.60	< 4.70	5.06	
CC(C)OC(=O)Nc1cnc2nc(-c3cc(NC(=O)N4CC[C@@H](O)C4)ccc3Cl)cn2c1 [Compound 286]	< 4.30	< 4.71	< 4.70	4.53	
CC(C)OC(=O)Nc1cnc2nc(-c3cc(NC(=O)N4CC(F)C4)ccc3F)cn2c1 [Compound 287]	6.40	6.92	5.84	7.11	
O=C(Nc1ccc(F)c(-c2cn3cc(-c4ccccn4)cnc3n2)c1)N1CC(F)(F)C1 [Compound 296, 3,3-difluoro-N-(4-fluoro-3-(6-(pyridin-2-yl)imidazo[1,2-a]pyrimidin-2-yl)phenyl)azetidine-1-carboxamide]	7.89	8.40	7.85		7.92
O=C(Nc1ccc(F)c(-c2cn3cc(C(F)(F)F)cnc3n2)c1)N1CC[C@H](F)C1 [Compound 297]	6.65	7.28	7.43	7.29	
CN(C)C(=O)Nc1ccc(F)c(-c2cn3cc(C(F)(F)F)cnc3n2)c1 [Compound 298]	5.65	6.11	6.28	6.45	
O=C(Nc1ccc(F)c(-c2cn3cc(C(F)(F)F)cnc3n2)c1)N1CCC1 [Compound 299]	6.75	7.04	7.35	7.47	
O=C(Nc1ccc(F)c(-c2cn3cc(C(F)(F)F)cnc3n2)c1)N1CC(F)(F)C1 [Compound 300]	6.40	7.05	6.83	6.81	
CC(C)OC(=O)Nc1ccc(F)c(-c2cn3cc(C(F)(F)F)cnc3n2)c1 [Compound 301, isopropyl (4-fluoro-3-(6-(trifluoromethyl)imidazo[1,2-a]pyrimidin-2-yl)phenyl)carbamate]	< 4.49	6.14	6.35		6.51
COCCOC(=O)Nc1cnc2nc(-c3cc(NC(=O)c4oc(C)nc4C)ccc3F)cn2c1 [Compound 304]	4.98	6.27	5.62	5.85	
